Here are results for five compounds from US4690937A, “Anti-hypertensive agents” (University of Miami, priority 1979, dated 1987).

Where two headings read alike, the source gives them in different places. Residues, ends and D or L forms follow the SMILES beside them. *: point of attachment. Bz = O=C(c1ccccc1)*

A word on the Km: it is the substrate concentration at which the rate is half of its maximum.

The target in assay [1] is T1, ACE (Homo sapiens, UniProt P12821).
T1 construct: same enzyme (human urinary ACE); from tissue; host or cells: human urine (purified as described by Ryan et al., Tissue and Cell 10, 555 (1978))
T1 sequence (P12821 30-1232 limits assumed): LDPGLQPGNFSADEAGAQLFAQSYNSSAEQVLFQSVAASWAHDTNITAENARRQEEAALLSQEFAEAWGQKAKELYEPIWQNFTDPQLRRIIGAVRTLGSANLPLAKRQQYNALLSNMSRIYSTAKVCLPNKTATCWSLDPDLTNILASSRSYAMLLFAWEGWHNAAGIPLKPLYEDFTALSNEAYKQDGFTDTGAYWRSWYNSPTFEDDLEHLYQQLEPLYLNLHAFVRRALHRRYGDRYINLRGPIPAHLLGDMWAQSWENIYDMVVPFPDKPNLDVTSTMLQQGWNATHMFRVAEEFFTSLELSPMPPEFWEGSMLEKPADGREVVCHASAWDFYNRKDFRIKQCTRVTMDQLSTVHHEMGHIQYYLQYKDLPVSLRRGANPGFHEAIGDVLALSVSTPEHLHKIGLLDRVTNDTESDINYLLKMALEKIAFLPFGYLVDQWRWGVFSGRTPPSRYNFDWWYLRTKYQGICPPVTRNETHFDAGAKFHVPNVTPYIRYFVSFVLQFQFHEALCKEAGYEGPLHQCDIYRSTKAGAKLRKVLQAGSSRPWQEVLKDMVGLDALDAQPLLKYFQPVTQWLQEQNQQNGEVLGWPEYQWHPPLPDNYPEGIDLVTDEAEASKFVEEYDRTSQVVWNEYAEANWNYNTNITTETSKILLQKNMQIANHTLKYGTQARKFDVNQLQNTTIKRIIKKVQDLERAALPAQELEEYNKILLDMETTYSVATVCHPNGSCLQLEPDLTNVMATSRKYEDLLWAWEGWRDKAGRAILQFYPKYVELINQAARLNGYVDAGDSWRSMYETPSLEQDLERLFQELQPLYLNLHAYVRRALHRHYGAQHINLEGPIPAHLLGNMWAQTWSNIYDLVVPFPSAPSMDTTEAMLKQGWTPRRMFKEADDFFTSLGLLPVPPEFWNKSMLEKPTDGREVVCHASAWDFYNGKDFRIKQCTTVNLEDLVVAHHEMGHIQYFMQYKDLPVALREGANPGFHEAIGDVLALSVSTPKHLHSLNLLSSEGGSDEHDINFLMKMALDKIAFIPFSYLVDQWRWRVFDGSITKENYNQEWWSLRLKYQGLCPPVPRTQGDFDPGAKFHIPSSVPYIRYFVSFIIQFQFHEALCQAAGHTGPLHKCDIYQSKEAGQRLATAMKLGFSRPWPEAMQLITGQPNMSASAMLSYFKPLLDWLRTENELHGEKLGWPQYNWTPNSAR
Conditions: previously disclosed compounds of copending applications, read-out: I50, cited from earlier work.

The target of assay [2] is T1, ACE. Put plainly: ACE activity assay in vitro (I50, hydrolysis of [3H]-Benzoyl-GlyHisLeu). The assay is classed as biochemical. As to the method: These factors include the source of enzyme, its purity, the substrate used and its concentration, and the composition of the assay buffer. All I50 data reported herein have been performed with the same assay system and same enzyme (human urinary ACE) and with an approximately 1/2 Km level of substrate and are therefore internaly consistent.
To initiate the assay, 40 μl of enzyme and 10 μl of water or inhibitor dissolved in water were preincubated for five minutes at 37° C. […] To terminate the reaction, 1 ml of 0.1M HCl was added, following which 1 ml of ethyl acetate was added. The mixture was agitated on a rotary mixer and centrifuged briefly to separate the phases.
An aliquot, 500μl, of the ethyl acetate layer was transferred to a liquid scintillation vial containing 10 ml of Riafluor, trademark New England Nuclear Corporation, Boston, Mass. For determination of I50 values, enzyme activity in the presence of inhibitor at a series of different concentrations was compared to activity in the absence of inhibitor.

Assay [3] relates to mean arterial blood pressure response to angiotensin I. Description: Intravenous effectiveness: blood pressure response to angiotensin I in anesthetized rats. It counts as in vivo. To be noted: rat, in words. As to the method: (§1) Rats (210-290 g body weight) were fasted overnight and then anesthetized with intraperitoneal pentobarbital, 50-60 mg/kg. Tracheostomy was performed and the animals were ventilated mechanically. A cannula was inserted into a femoral vein for injection of angiotensin I, and a second cannula was inserted into a common carotid artery for direct measurement of arterial blood pressure. Heparin, 1,000 units, was injected via the femoral vein to prevent coagulation. Blood pressure was measured with a pressure transducer connected to a polygraph. The rats were injected with […] of angiotensin I in 20μl of 0.9 g % NaCl; an amount of angiotensin I sufficient to raise mean arterial blood pressure by 25 mm Hg. After the responsiveness of a given rat to angiotensin I was established, the named compound at 20 μmol/kg (drug dissolved in 0.15 ml of H2 O plus 10μl of 1 N NaHCO3), was given via a stomach tube. At timed intervals, the effects of 400 ng/kg of angiotensin I on mean arterial blood pressure were tested. Results are shown below:
Anesthetized rats were prepared as described in Example 18. The named compound was administered intravenously via a femoral vein, at the stated dose, in 15 μl of 0.01 N sodium bicarbonate. […] The time required for recovery of one half the lost responsiveness to angiotensin I, following injection of the named compound, is designated t1/2. […]

Assay [4] has the same test system. Description: Oral effectiveness: blood pressure response to angiotensin I in anesthetized rats. Conditions: rat, oral 20 μmol/kg, -5 min (pre-dose control, 25 mm Hg). The assay is classed as in vivo. As to the method: as §1, with “tested.” for “tested. Results are shown below:”
Assay [5] concerns ACE. To be noted: disulfide formed on standing of aqueous solution; cited from earlier work.

For the compound `CC(SC(=O)[C@H](Cc1ccccc1)NC(=O)c1ccccc1)C(=O)N1CC=C[C@H]1C(=O)O` (stereo partly drawn) [N-(2-benzoylphenylalanylthiopropanoyl)-L-3,4-dehydroproline], the IC50 on ACE [1] (for racemic compound) was 3 nM. Compound `C[C@H](CSC(=O)[C@H](Cc1c[nH]c2ccccc12)NC(=O)c1ccccc1)C(=O)N1CCC[C@H]1C(=O)O` [N^α -[3-(Nα-benzoyl-L-tryptophylthio)-2-D-methylpropanoyl]-L-proline] gave an IC50 at ACE [2] (ACE purified from human urine, pH 8.0, 37° C., Benzoyl-GlyHisLeu 1×10^-4 M) of 9.4 nM. The “Response to intravenous administration (responsiveness to Angiotensin I, 400 ng/kg)” value in assay [3] was “rapid decrease in responsiveness to Angiotensin I, 400 ng/kg, followed by a gradual recovery to the pretreatment level of responsiveness”. Besides, the “Blood Pressure Response to 400 ng/kg of Angiotensin I” value in assay [4] is 100 % of Control. In the case of `CC(C)C[C@H](NC(=O)[C@H](Cc1cnc[nH]1)NC(=O)CNC(=O)c1ccccc1)C(=O)O` [Benzoyl-GlyHisLeu, reference compound] (Bz-Gly-His-Leu-OH), the Km at ACE [2] (substrate Benzoyl-GlyHisLeu, 0.05M Hepes pH 8.0, 0.1M NaCl, 0.75M Na2 SO4) is roughly 200 µM. Take `C[C@H](CSSC[C@@H](C)C(=O)N1CCC[C@H]1C(=O)O)C(=O)N1CCC[C@H]1C(=O)O` [disulfide]: the “ACE inhibition by the disulfide dimer” value in the assay on ACE [5] is “largely inactive as an inhibitor”. Regarding `O=C(N[C@@H](Cc1ccccc1)C(=O)SCCC(=O)N1CCC[C@H]1C(=O)O)c1ccccc1`, the IC50 at ACE [1] (approximate) was roughly 700 nM.
